Measurements reported in patent publication US8263791B2, “Method and reagent for protein analysis” (National Institute of Advanced Industrial Science and …, priority 2008, dated 2012).
“And” between values parts separate entries of the source, which are not always exact repeats. Equal values may be shown once.

Assays:
[1] = test system: Protein Standard Mixture IV (ovotransferrin, albumin, ovalbumin, carboanhydrase, myoglobin, cytochrome C); test: Protein detection on SDS-PAGE gel by staining after electrophoresis, varying solutions (I)/(II); conditions: 100 μg/mL
Description: (§1) Two (2) mL of a stock buffer (a mixture of purified water (4.2 mL), 0.5 M Tris-hydrochloric acid buffer (pH 8.6) (1.0 mL), glycerol (0.8 mL), 100 g/L sodium dodecyl sulfate (1.6 mL), and 2-mercaptoethanol (0.4 mL)) was added to 2 mg of a commercially available molecular weight marker (Protein Standard Mixture IV; Merck & Co., Inc.). The mixture was heated in boiling water for 2 minutes and then cooled. Thirty (30) μL each of the resultant was dispensed in a 0.5-mL microtube and then cryopreserved at −80° C. until the use thereof. A sample diluent (a mixture of purified water (3.8 mL), 0.5 M Tris-hydrochloric acid buffer (pH 8.6) (1.0 mL), glycerol (0.8 mL), 100 g/L sodium dodecyl sulfate (1.6 mL), and 5 g/L bromophenol blue (0.8 mL)) was added to the thawed molecular weight marker, so that a dilution series with protein concentrations ranging from 0.4 ng/μL to 200 ng/μL was prepared.
(§2) The marker contained, in terms of mass, equal amounts of ovotransferrin (78 kDa), albumin (66.3 kDa), ovalbumin (42.7 kDa), carboanhydrase (30 kDa), myoglobin (16.9 kDa), and cytochrome C (12.4 kDa).
(§3) • Electrophoresis apparatus: RAPIDAS-Mini-Slab electrophoresis chamber AE6450 (ATTO Corporation) • Polyacrylamide gel: Multigel II mini 10/20 (13W) (COSMO BIO Co., Ltd.) • Buffer for electrophoresis: 27.2 mM Tris (hydroxymethyl) aminomethane, 192 mM glycine, 3.5 mM Sodium dodecyl sulfate (pH 8.3) • Fluorescence imaging analyzer: Light capture II (ATTO Corporation)
Light source: green LED (center wavelength: 525 nm)
Cut filter: R-60 (550 nm).
(§4) Each sample of the dilution series prepared in (1) above was applied to a gel at 5 μL/well (lane 1: 167 ng of protein/band; lane 2: 83.3 ng/band; lane 3: 41.7 ng/band; lane 4: 20.8 ng/band; lane 5: 10.4 ng/band; lane 6: 5.2 ng/band; lane 7: 2.6 ng/band; lane 8: 1.3 ng/band; lane 9: 0.7 ng/band; and lane 10: 0.4 ng/band) and then subjected to electrophoresis with constant current of 30 mA for 45 minutes.
(§5) After electrophoresis, the gel was immediately immersed in a solution (I) (purified water, 1% Tween80 aqueous solution, or 1% Tween20 aqueous solution) for a predetermined period of time (20 minutes or 30 minutes). Subsequently, the gel was transferred to another container and then a buffer (purified water/25 mM phosphate buffer (pH 2.5)/methanol=45/45/10 (v/v)) in which Compound 1 (100 μg/mL) had been dissolved was added. After being left to stand for 10 minutes, the gel was transferred to another container and then immersed in a solution (II) (purified water, 1% Tween80 aqueous solution, or 1% Tween20 aqueous solution) for decoloration.

[2] = test system: Protein Standard Mixture IV (ovotransferrin, albumin, ovalbumin, carboanhydrase, myoglobin, cytochrome C); test: Evaluation of protein detection using Compound 1 and Compound 2 (staining after electrophoresis, Tween80); design: key to Detection: +: All bands could be detected.; −: At least one band could not be detected; conditions: for Detection / Detection limit (protein per band that could be detected): compound 60 μg/mL; for Detection limit (protein per band that could be detected): 1% Tween80 before and after staining
Description: as §1, §2, §3, §4
(§6) Protein detection was carried out using Compound 1 and Compound 2 synthesized in Example 1 under analysis conditions described in Example 3. After electrophoresis, the gel was first immersed in 1% Tween80 aqueous solution for 20 minutes and then immersed in a buffer containing Compound 1 (60 μg/mL) or Compound 2 (60 μg/mL) for 10 minutes. Subsequently, the gel was transferred to and immersed in a container containing a 1% Tween80 aqueous solution for 30 minutes. […] The total time needed for treatment was 60 minutes. The gel was analyzed using a fluorescence imaging analyzer. When Compound 1 was used, bands containing 2.6 ng or more of proteins could be detected. Compared with the result, the detection limit was 20 ng in the case of Compound 2.

[3] = Measurement of maximum absorption wavelength and maximum fluorescence wavelength; format: physicochemical; conditions: 25 μg/mL in purified water
Description: Compound 1 and Compound 2 were separately dissolved in purified water at a concentration of 25 μg/mL. The absorption spectra at a wavelength ranging from 200 nm to 800 nm and the fluorescence spectra at a wavelength ranging from 450 nm to 600 nm were measured. The absorption spectra were measured using U3310 (Hitachi High-Technologies Corporation) and the fluorescence spectra were measured using RF-1500 (Shimadzu Corporation).

[4] = test system: Protein Standard Mixture IV (ovotransferrin, albumin, ovalbumin, carboanhydrase, myoglobin, cytochrome C); test: Protein detection with staining carried out during electrophoresis; design: key to Detection: +: All bands could be detected.; −: At least one band could not be detected; conditions: compound 15 μg/mL in electrophoresis buffer
Description: Compound 1 or Compound 2 were dissolved in a buffer for electrophoresis (27.2 mM Tris (hydroxymethyl)aminomethane, 192 mM glycine, and 3.5 mM sodium dodecyl sulfate (pH 8.3)) at a concentration of 15 μg/mL. With the use of the above buffer, the other conditions identical to those described in Example 3 were employed to carry out electrophoresis. After completion of electrophoresis, the gel was transferred to a container containing 1% Tween80 aqueous solution, left to stand for 40 minutes, and then analyzed using a fluorescence imaging analyzer. When Compound 1 was used, bands containing 5.2 ng or more of a protein could be detected.

[5] = Water solubility / precipitation in the staining solution; format: physicochemical
Description: as §5, §6
(§7) After electrophoresis, the gel was immediately immersed in distilled water for 20 to 30 minutes. Subsequently, the gel was transferred to another container and then a staining solution (distilled water:methanol=1:1 (v/v)) in which Compound 3 (100 μg/mL) had been dissolved was added. After 30 minutes of immersion, the gel was transferred to another container and then immersed in a wash solution (water:methanol=90:10 (v/v)) for decoloration. The gel was observed using a fluorescence imaging analyzer.

BSA = target: T1, BSA (Bos taurus, UniProt P02769); test: Evaluation of protein detection using Compound 3; design: key to Detection: +: Band could be detected.; −: No band could be detected
T1 construct: purchased PIERCE
Description: Protein samples were prepared as follows: Sample buffer (0.0625 M Tris-HCl (pH 6.8), 5% 2-mercaptoethanol, 2% SDS, 20% glycerol, and 0.005% BPB) was added to 2.0 mg/mL commercially available BSA (PIERCE). to dilute it to concentrations of 200, 60, 30, 12, 6, 3, and 0.2 ng/μL, respectively. These protein samples were heated at 80° C. for 5 minutes and then left to stand to cool.
Conditions for electrophoresis are as follows: • Electrophoresis apparatus: ERICA XVE-001C (DRC Co., Ltd.) • Polyacrylamide gel: XV PANTERA Gel (DRC Co., Ltd.) • Buffer for electrophoresis: electrophoresis buffer attached to XV PANTERA Gel • Fluorescence imaging analyzer: LS400 (TECAN GROUP LTD) • Excitation wavelength: 543 nm; detection wavelength: 590 nm.
Each of the above prepared samples was applied to a gel at 5 μL/well (1000, 300, 150, 60, 30, 15, and 1 ng/band, respectively), followed by electrophoresis.
as §7

T1 sequence (P02769 25-607): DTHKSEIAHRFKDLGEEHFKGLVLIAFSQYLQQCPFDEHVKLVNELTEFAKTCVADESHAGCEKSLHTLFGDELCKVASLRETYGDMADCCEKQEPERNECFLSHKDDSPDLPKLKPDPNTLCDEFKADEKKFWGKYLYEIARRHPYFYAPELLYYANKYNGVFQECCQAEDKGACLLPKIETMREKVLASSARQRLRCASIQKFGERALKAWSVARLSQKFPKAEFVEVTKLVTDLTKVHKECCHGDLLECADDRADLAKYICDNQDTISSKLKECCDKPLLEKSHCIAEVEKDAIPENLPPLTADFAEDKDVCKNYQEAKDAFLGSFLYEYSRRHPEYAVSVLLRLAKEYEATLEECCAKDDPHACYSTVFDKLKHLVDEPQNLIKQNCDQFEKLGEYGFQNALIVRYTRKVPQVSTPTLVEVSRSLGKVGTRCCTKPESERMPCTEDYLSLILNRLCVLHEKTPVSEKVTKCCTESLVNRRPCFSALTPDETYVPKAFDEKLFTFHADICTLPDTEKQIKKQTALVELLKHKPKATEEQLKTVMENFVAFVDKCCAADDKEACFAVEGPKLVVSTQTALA

SMILES | Detection ([2]; Lane 1, protein 167 ng/band) | Detection ([2]; Lane 2, protein 83.3 ng/band) | Detection ([2]; Lane 3, protein 41.7 ng/band) | Detection ([2]; Lane 4, protein 20.8 ng/band) | Detection ([2]; Lane 5, protein 10.4 ng/band) | Detection ([2]; Lane 6, protein 5.2 ng/band) | Detection ([2]; Lane 7, protein 2.6 ng/band) | Detection ([2]; Lane 8, protein 1.3 ng/band) | Detection ([2]; Lane 9, protein 0.7 ng/band) | Detection ([2]; Lane 10, protein 0.4 ng/band) | Detection limit (protein per band that could be detected) [2] | Excitation wavelength for maximum fluorescence [3] | Maximum absorption wavelength [3] | Maximum fluorescence wavelength [3] | Detection ([4]; Lane 1, protein 167 ng/band) | Detection ([4]; Lane 2, protein 83.3 ng/band) | Detection ([4]; Lane 3, protein 41.7 ng/band) | Detection ([4]; Lane 4, protein 20.8 ng/band) | Detection ([4]; Lane 5, protein 10.4 ng/band) | Detection ([4]; Lane 6, protein 5.2 ng/band) | other results
N#CC(C#N)=C1C=C(/C=C/c2ccccc2S(=O)(=O)[O-])OC(/C=C/c2ccccc2S(=O)(=O)[O-])=C1.[Na+].[Na+] [Compound 1, 2,2′-(1E,1′E)-2,2′-(4-(dicyanomethylene)-4H-pyrane-2,6-diyl)bis(ethene-2,1-diyl)bis(sodium benzenesulfonate)salt] | + | + | + | + | + | + | + | − | − | − | ≥ 2.6 ng | 444 nm | 293 nm and 380 nm | 516 nm | + | + | + | + | + | + | Detection sensitivity ([1]; Conditions 1: solution (I) purified water, solution (II) purified water): 5 ng; Detection sensitivity ([1]; Conditions 2: solution (I) Tween80, solution (II) purified water): 5 ng; Detection sensitivity ([1]; Conditions 3: solution (I) purified water, solution (II) Tween80): 5 ng; Detection sensitivity ([1]; Conditions 4: solution (I) Tween80, solution (II) Tween80): 5 ng; Detection sensitivity ([1]; Conditions 5: solution (I) Tween20, solution (II) Tween20): 10 ng; Relationship between protein concentration of each band and fluorescence intensity ([2]; FIG. 2, all proteins of the marker): no differences due to protein type were observed; Detection ([4]; Lane 7, protein 2.6 ng/band): +; Detection ([4]; Lane 8, protein 1.3 ng/band): −; Detection ([4]; Lane 9, protein 0.7 ng/band): −; Detection ([4]; Lane 10, protein 0.4 ng/band): −; Protein per band that could be detected ([4]; 1% Tween80 40 minutes): ≥ 5.2 ng; Precipitation in the solutions during staining ([5]; 60 μg/mL in buffer, Example 4): no precipitation; Precipitation in the solutions during staining ([5]; 100 μg/mL in purified water/25 mM phosphate buffer (pH 2.5)/methanol=45/45/10): no precipitation
CC1=CC(=C(C#N)C#N)C=C(/C=C/c2ccccc2S(=O)(=O)[O-])O1.[Na+] [Compound 2, (E)-2-(2-(4-(dicyanomethylene)-6-methyl-4H-pyrane-2-yl)vinyl)sodium Benzenesulfonate] | + | + | + | + | − | − | − | − | − | − | 20 ng | 440 nm | 388 nm | 511 nm | − | − | − | − | − | − | Detection ([4]; Lane 7, protein 2.6 ng/band): −; Detection ([4]; Lane 8, protein 1.3 ng/band): −; Detection ([4]; Lane 9, protein 0.7 ng/band): −; Detection ([4]; Lane 10, protein 0.4 ng/band): −; Protein detection (in words) ([4]; 1% Tween80 40 minutes): proteins other than cytochrome C could not be detected
CC1=CC(=C(C#N)C#N)C=C(/C=C/c2ccc(O)c3ccccc23)O1 [Compound 3] |  |  |  |  |  |  |  |  |  |  |  |  |  |  |  |  |  |  |  |  | Sensitivity lower than that of the compound of the present invention (BSA): ≥ 10 times; Detection (BSA; BSA 1 ng/band, compound 100 μg/mL): −; Detection (BSA; BSA 15 ng/band, compound 100 μg/mL): −; Detection (BSA; BSA 30 ng/band, compound 100 μg/mL): +; Detection (BSA; BSA 60 ng/band, compound 100 μg/mL): +; Detection (BSA; BSA 150 ng/band, compound 100 μg/mL): +; Detection (BSA; BSA 300 ng/band, compound 100 μg/mL): +; Detection (BSA; BSA 1000 ng/band, compound 100 μg/mL): +; Protein detection sensitivity (BSA; BSA, compound 100 μg/mL): 30 ng; False positive spots after washing step (BSA; wash solution water:methanol=90:10): insoluble matter adhering to the gel appeared as false positive spots; Solubility in water [5]: hardly soluble in water; Precipitation in the staining solution during staining ([5]; 100 μg/mL in distilled water:methanol=1:1): precipitated in the staining solution
